Results as given in ChEMBL document CHEMBL5653631, “A Potent and Selective ULK1 Inhibitor Suppresses Autophagy and Sensitizes Cancer Cells to Nutrient Stress” (iScience, 2018).

Experiments:
[1] = molecular target: Insulin-like growth factor 1 receptor (Homo sapiens) (UniProt P08069); assay: Inhibition of human recombinant IGF1R at 40 nM related to control ULK1
[2] = molecular target: Death-associated protein kinase 3 (Homo sapiens) (UniProt O43293); assay: Inhibition of human recombinant DAPK3 at 500 nM in presence of ATP by radiometric assay relative to control
Death-associated protein kinase 3 (Homo sapiens), sequence (O43293 whole entry, looked up): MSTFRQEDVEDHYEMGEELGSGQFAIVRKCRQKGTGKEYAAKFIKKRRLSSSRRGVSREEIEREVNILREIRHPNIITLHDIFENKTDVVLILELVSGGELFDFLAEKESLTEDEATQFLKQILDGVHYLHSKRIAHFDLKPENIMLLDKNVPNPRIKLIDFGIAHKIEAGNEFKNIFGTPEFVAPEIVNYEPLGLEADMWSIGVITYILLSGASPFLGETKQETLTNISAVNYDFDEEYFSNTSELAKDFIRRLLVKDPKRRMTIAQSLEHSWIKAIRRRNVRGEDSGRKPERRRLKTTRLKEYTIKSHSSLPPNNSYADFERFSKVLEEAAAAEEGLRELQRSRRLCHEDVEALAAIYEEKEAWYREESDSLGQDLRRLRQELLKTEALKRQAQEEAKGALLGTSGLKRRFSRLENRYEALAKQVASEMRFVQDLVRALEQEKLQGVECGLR

[3] = molecular target: T1, Mitogen-activated protein kinase kinase kinase 5 (Homo sapiens) (UniProt Q99683); assay: Inhibition of human recombinant MAP3K5 at 500 nM in presence of ATP by radiometric assay relative to control
T1 sequence (whole entry): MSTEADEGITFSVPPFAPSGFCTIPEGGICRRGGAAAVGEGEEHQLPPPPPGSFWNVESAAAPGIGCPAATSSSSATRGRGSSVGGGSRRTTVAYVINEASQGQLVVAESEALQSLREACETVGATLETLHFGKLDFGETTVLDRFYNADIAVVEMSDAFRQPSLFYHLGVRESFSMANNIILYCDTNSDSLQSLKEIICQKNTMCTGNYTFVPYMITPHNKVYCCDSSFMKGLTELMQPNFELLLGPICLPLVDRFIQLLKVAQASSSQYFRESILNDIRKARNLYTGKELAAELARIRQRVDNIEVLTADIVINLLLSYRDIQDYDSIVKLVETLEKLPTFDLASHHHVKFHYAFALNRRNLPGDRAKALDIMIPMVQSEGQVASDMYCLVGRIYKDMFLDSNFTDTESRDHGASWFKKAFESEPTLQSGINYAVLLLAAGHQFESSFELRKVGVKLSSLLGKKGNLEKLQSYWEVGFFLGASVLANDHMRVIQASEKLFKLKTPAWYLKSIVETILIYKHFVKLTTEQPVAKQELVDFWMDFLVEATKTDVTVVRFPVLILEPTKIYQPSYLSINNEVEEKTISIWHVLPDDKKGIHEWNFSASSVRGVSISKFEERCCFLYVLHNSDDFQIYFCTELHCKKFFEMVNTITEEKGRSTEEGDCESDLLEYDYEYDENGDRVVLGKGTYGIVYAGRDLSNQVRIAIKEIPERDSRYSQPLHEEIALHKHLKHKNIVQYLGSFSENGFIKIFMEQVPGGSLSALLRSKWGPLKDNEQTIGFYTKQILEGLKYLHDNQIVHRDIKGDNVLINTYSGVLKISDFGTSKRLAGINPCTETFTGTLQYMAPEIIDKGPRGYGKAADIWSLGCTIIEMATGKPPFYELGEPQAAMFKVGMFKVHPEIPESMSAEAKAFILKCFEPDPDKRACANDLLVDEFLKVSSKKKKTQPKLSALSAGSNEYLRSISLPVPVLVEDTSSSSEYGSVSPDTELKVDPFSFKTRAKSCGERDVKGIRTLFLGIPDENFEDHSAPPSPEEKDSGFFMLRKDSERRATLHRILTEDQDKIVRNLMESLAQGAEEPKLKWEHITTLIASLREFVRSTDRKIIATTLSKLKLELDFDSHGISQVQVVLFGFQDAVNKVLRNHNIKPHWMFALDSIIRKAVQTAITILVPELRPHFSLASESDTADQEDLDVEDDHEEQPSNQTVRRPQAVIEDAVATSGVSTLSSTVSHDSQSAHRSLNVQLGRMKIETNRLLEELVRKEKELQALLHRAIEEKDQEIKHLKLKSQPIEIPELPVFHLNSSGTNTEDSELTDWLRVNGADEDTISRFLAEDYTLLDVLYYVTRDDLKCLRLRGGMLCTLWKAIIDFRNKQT

[4] = molecular target: Serine/threonine-protein kinase 32A (Homo sapiens) (UniProt Q8WU08); assay: Inhibition of human recombinant YANK1 at 500 nM in presence of ATP by radiometric assay relative to control
Serine/threonine-protein kinase 32A (Homo sapiens), sequence (Q8WU08 whole entry): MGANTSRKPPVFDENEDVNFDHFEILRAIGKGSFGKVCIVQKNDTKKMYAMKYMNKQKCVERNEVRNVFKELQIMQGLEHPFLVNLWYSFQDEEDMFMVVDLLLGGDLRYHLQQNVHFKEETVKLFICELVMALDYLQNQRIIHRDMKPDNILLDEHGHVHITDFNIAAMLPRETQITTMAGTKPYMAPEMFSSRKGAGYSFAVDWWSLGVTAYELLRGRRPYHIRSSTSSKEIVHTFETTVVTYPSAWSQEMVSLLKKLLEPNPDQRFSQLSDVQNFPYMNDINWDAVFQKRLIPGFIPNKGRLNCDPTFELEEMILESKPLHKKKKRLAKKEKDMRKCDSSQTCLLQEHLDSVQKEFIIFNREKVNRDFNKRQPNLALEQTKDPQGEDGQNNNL

[5] = molecular target: T2, Cytoplasmic tyrosine-protein kinase BMX (Homo sapiens) (UniProt P51813); assay: Inhibition of human recombinant BMX at 500 nM related to control ULK1
T2 sequence (whole entry): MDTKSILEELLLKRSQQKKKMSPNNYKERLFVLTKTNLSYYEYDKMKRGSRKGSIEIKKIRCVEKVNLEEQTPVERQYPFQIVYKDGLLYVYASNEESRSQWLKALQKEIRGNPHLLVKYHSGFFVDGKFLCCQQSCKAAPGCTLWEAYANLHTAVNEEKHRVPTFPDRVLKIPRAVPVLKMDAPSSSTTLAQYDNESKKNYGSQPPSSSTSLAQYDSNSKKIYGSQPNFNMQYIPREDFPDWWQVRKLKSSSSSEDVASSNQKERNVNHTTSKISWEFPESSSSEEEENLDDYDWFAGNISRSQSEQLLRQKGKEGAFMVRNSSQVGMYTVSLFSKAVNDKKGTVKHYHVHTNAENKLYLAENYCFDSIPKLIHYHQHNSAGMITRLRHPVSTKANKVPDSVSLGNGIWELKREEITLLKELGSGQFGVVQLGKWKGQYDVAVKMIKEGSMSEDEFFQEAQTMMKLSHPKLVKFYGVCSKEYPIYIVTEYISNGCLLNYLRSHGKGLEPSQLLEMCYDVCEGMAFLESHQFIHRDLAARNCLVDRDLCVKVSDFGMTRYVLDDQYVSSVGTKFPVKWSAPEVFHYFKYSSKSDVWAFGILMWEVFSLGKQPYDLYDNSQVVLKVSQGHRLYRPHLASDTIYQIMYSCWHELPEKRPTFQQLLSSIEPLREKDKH

[6] = molecular target: Serine/threonine-protein kinase mTOR (Homo sapiens) (UniProt P42345); assay: Inhibition of human recombinant FRAP at 500 nM related to control ULK1
[7] = molecular target: Tyrosine-protein kinase Tec (Homo sapiens) (UniProt P42680); assay: Inhibition of human recombinant TEC at 500 nM related to control ULK1
Tyrosine-protein kinase Tec (Homo sapiens), sequence (P42680 whole entry, looked up): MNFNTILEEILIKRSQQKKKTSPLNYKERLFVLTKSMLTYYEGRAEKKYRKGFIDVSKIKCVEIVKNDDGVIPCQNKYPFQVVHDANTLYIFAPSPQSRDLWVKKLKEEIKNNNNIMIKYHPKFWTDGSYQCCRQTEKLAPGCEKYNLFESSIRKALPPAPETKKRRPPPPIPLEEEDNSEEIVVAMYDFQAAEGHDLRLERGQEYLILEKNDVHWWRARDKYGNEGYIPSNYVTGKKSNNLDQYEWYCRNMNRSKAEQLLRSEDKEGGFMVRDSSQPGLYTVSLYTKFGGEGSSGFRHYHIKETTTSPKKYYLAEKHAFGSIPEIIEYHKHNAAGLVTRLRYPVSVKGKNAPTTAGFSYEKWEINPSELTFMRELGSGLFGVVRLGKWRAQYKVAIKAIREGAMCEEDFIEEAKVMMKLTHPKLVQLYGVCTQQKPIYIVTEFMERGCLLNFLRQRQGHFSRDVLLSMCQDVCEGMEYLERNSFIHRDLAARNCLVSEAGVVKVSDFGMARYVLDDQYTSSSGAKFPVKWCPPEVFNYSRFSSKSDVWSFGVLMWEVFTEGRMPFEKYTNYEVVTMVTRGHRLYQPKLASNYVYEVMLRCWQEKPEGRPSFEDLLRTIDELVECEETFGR

[8] = molecular target: Ribosomal protein S6 kinase alpha-6 (Homo sapiens) (UniProt Q9UK32); assay: Inhibition of human recombinant RSK4 at 15 nM in presence of ATP by radiometric assay relative to control
Ribosomal protein S6 kinase alpha-6 (Homo sapiens), sequence (Q9UK32 whole entry): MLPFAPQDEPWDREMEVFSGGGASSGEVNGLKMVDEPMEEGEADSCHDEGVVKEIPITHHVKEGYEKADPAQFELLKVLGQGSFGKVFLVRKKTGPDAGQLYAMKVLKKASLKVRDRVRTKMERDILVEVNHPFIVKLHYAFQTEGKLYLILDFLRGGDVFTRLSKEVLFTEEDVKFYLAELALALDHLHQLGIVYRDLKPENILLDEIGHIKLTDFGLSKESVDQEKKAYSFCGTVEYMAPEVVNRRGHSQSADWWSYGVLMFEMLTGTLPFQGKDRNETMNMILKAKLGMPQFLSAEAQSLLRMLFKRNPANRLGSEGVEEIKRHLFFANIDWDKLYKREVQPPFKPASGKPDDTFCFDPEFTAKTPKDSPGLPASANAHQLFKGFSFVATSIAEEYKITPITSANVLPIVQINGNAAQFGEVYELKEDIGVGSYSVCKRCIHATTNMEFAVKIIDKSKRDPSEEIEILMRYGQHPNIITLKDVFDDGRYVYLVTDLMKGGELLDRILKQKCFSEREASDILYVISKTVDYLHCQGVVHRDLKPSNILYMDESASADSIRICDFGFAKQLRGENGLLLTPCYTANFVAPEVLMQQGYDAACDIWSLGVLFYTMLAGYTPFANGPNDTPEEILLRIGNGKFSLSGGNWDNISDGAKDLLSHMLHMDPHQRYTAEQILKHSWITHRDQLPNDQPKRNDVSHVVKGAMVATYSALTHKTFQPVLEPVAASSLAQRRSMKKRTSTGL

[9] = molecular target: Calcium/calmodulin-dependent protein kinase type II subunit beta (Homo sapiens) (UniProt Q13554); assay: Inhibition of human recombinant CaMK2b at 15 nM related to control ULK1
Calcium/calmodulin-dependent protein kinase type II subunit beta (Homo sapiens), sequence (Q13554 whole entry): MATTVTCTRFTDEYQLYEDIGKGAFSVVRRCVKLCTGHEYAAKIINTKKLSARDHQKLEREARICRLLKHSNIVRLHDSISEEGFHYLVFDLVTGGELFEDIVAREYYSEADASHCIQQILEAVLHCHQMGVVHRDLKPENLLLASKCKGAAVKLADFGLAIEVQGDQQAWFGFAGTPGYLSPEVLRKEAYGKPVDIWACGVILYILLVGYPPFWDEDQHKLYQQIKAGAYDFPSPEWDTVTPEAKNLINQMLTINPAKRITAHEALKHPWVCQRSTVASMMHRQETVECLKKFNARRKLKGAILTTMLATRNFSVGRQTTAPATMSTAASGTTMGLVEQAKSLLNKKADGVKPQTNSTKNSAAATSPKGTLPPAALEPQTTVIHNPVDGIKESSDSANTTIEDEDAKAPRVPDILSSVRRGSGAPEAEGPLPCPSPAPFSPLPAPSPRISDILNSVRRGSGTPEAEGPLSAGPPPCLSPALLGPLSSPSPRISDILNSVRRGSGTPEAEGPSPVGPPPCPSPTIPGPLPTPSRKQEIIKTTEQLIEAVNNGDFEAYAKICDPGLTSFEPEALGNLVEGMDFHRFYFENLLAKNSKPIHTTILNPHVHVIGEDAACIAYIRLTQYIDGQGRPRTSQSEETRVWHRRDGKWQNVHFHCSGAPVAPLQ

[10] = molecular target: Ephrin type-A receptor 5 (Homo sapiens) (UniProt P54756); assay: Inhibition of human recombinant EphA5 at 15 nM related to control ULK1

Insulin-like growth factor 1 receptor (Homo sapiens), sequence (P08069 31-736 limits assumed): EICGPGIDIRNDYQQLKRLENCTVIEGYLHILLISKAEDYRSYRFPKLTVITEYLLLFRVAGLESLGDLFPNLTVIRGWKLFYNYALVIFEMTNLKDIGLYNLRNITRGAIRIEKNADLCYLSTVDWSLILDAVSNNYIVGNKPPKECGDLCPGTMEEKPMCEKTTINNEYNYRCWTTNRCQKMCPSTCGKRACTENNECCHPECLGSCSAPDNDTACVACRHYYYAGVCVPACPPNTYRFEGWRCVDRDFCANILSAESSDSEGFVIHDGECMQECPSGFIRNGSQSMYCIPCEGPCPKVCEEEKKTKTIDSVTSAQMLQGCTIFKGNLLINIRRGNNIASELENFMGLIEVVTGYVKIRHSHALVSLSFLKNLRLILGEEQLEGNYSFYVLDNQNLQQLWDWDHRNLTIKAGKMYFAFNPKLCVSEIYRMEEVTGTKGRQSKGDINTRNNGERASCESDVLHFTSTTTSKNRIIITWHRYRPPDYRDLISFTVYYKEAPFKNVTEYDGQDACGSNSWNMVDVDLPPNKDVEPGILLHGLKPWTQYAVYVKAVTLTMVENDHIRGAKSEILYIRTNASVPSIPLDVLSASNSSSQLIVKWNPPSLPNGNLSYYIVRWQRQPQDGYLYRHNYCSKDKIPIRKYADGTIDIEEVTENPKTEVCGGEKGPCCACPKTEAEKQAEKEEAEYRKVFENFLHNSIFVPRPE
Insulin-like growth factor 1 receptor (Homo sapiens), sequence (P08069 741-1367 limits assumed): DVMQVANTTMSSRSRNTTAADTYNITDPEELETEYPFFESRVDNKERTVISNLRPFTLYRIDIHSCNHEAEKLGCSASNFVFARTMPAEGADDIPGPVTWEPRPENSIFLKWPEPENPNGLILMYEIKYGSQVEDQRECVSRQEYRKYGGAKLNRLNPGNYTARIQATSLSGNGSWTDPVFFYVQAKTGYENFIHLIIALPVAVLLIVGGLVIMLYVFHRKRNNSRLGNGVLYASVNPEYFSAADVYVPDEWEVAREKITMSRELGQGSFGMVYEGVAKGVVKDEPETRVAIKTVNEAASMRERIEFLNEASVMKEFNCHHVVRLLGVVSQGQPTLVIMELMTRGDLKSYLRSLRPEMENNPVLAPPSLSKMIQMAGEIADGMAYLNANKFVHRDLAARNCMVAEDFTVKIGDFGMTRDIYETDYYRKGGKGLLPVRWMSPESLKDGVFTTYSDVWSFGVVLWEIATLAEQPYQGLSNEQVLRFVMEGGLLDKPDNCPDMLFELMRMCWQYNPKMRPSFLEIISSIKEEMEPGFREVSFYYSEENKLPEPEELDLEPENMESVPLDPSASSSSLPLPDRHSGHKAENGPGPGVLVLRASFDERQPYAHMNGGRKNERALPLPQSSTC

SMILES: O=C(N[C@@H](C1CC1)C(F)(F)F)c1cc(-c2cnn3cc(-c4ccc(F)cc4)cnc23)cs1
- fold change (FC) [1]: 0

SMILES: CNC(=O)c1ccccc1Oc1nc(Nc2cc(OC)c(OC)c(OC)c2)ncc1Br
- inhibition [2]: 10%
- inhibition [3]: 0%
- inhibition [4]: 0%
- fold change (FC) [5]: 0.22
- fold change (FC) [6]: 0
- fold change (FC) [7]: 0.03

SMILES: CC(C)[C@H](NC(=O)c1cc(-c2cnn3cc(-c4ccc(OCCN5CCCCC5)cc4)cnc23)cs1)C(F)(F)F
- inhibition [8]: 0%
- fold change (FC) [9]: 0.11
- fold change (FC) [10]: 0
